Assay results from PubChem BioAssay AID1963432 (Molecular Pharmacology Branch, DTP, NCI, 2024).

System: SYO-1 complex spheroid growth, percent test/control
Test: Anticancer human tumor SYO-1 cell line growth inhibition [Asc];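 note: compound exposure lasted 7 days after spheroids grew 3 days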;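 for viability, T/C: 100% = DMSO vehicle control viability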
Conditions: for IC50: curve of first compound; for viability, T/C: stronger effect = lower value
Procedure, shortened: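 Concentration series start at each agent's clinical Cmax, or at 10 microM when none is established, and drop in half-log steps; agents are applied alone or together to complex spheroids built with HUVEC and hMSC.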

[1] = second compound 0.00949 µM, first compound 0.00316 µM
[2] = second compound 0.00949 µM, first compound 0.01 µM
[3] = second compound 0.00949 µM, first compound 0.0316 µM
[4] = second compound 0.00949 µM, first compound 0.1 µM
[5] = second compound 0.03 µM, first compound 0.00316 µM
[6] = second compound 0.03 µM, first compound 0.01 µM
[7] = second compound 0.03 µM, first compound 0.0316 µM
[8] = second compound 0.03 µM, first compound 0.1 µM
[9] = second compound 0.0949 µM, first compound 0.00316 µM
[10] = second compound 0.0949 µM, first compound 0.01 µM
[11] = second compound 0.0949 µM, first compound 0.0316 µM
[12] = second compound 0.0949 µM, first compound 0.1 µM
[13] = second compound 0.3 µM, first compound 0.00316 µM
[14] = second compound 0.3 µM, first compound 0.01 µM
[15] = second compound 0.3 µM, first compound 0.0316 µM
[16] = second compound 0.3 µM, first compound 0.1 µM
[17] = second compound 0.949 µM, first compound 0.00316 µM
[18] = second compound 0.949 µM, first compound 0.01 µM
[19] = second compound 0.949 µM, first compound 0.0316 µM
[20] = second compound 0.949 µM, first compound 0.1 µM
[21] = second compound 3 µM, first compound 0.00316 µM
[22] = second compound 3 µM, first compound 0.01 µM
[23] = second compound 3 µM, first compound 0.0316 µM
[24] = second compound 3 µM, first compound 0.1 µM

## COc1c(OCCCN2CCOCC2)ccc2c3n(c(=NC(=O)c4cnc(N)nc4)nc12)CCN3 + CCN1C(C(=O)NC23CCC(C(=O)O)(CC2)CC3)C(c2cccc(Cl)c2F)C2(C(=O)Nc3cc(Cl)ccc32)C12CCCCC2
Second compound 0.00949 µM
  IC50: 800 nM
Second compound 0.03 µM
  IC50: 540 nM
Second compound 0.0949 µM
  IC50: 123 nM
Second compound 0.3 µM
  IC50: < 3.16 nM
Second compound 0.949 µM
  IC50: < 3.16 nM
Second compound 3 µM
  IC50: < 3.16 nM
[1]
  viability, T/C: 110%
[2]
  viability, T/C: 109%
[3]
  viability, T/C: 101%
[4]
  viability, T/C: 85.2%
Second compound 0.00949 µM, first compound 0.316 µM
  viability, T/C: 75.4%
Second compound 0.00949 µM, first compound 1 µM
  viability, T/C: 43.4%
[5]
  viability, T/C: 103%
[6]
  viability, T/C: 103%
[7]
  viability, T/C: 96.9%
[8]
  viability, T/C: 80.8%
Second compound 0.03 µM, first compound 0.316 µM
  viability, T/C: 69.3%
Second compound 0.03 µM, first compound 1 µM
  viability, T/C: 30.6%
[9]
  viability, T/C: 85.8%
[10]
  viability, T/C: 86.3%
[11]
  viability, T/C: 77.2%
[12]
  viability, T/C: 52.1%
Second compound 0.0949 µM, first compound 0.316 µM
  viability, T/C: 32.2%
Second compound 0.0949 µM, first compound 1 µM
  viability, T/C: 16%
[13]
  viability, T/C: 20.3%
[14]
  viability, T/C: 23.4%
[15]
  viability, T/C: 19.3%
[16]
  viability, T/C: 16.3%
Second compound 0.3 µM, first compound 0.316 µM
  viability, T/C: 12%
Second compound 0.3 µM, first compound 1 µM
  viability, T/C: 2.7%
[17]
  viability, T/C: 2.01%
[18]
  viability, T/C: 3.89%
[19]
  viability, T/C: 3.28%
[20]
  viability, T/C: 2.38%
Second compound 0.949 µM, first compound 0.316 µM
  viability, T/C: 3.39%
Second compound 0.949 µM, first compound 1 µM
  viability, T/C: 0.44%
[21]
  viability, T/C: 1.01%
[22]
  viability, T/C: 1.03%
[23]
  viability, T/C: 1.75%
[24]
  viability, T/C: 0.55%
Second compound 3 µM, first compound 0.316 µM
  viability, T/C: 0.57%
Second compound 3 µM, first compound 1 µM
  viability, T/C: 0.45%

## NC(=O)C(=Cn1cnc(-c2cc(C(F)(F)F)cc(C(F)(F)F)c2)n1)c1cncnc1 + CCN1C(C(=O)NC23CCC(C(=O)O)(CC2)CC3)C(c2cccc(Cl)c2F)C2(C(=O)Nc3cc(Cl)ccc32)C12CCCCC2
Second compound 0.00949 µM
  IC50: 165 nM
Second compound 0.03 µM
  IC50: 134 nM
Second compound 0.0949 µM
  IC50: 41.7 nM
Second compound 0.3 µM
  IC50: < 0.949 nM
Second compound 0.949 µM
  IC50: < 0.949 nM
Second compound 3 µM
  IC50: < 0.949 nM
Second compound 0.00949 µM, first compound 0.000949 µM
  viability, T/C: 96.3%
Second compound 0.00949 µM, first compound 0.003 µM
  viability, T/C: 96.1%
Second compound 0.00949 µM, first compound 0.00949 µM
  viability, T/C: 99.3%
Second compound 0.00949 µM, first compound 0.03 µM
  viability, T/C: 87.8%
Second compound 0.00949 µM, first compound 0.0949 µM
  viability, T/C: 87.5%
Second compound 0.00949 µM, first compound 0.3 µM
  viability, T/C: 9.44%
Second compound 0.03 µM, first compound 0.000949 µM
  viability, T/C: 99.4%
Second compound 0.03 µM, first compound 0.003 µM
  viability, T/C: 94.6%
Second compound 0.03 µM, first compound 0.00949 µM
  viability, T/C: 90.1%
Second compound 0.03 µM, first compound 0.03 µM
  viability, T/C: 90.5%
Second compound 0.03 µM, first compound 0.0949 µM
  viability, T/C: 69.4%
Second compound 0.03 µM, first compound 0.3 µM
  viability, T/C: 5.52%
Second compound 0.0949 µM, first compound 0.000949 µM
  viability, T/C: 83.4%
Second compound 0.0949 µM, first compound 0.003 µM
  viability, T/C: 80.9%
Second compound 0.0949 µM, first compound 0.00949 µM
  viability, T/C: 76.6%
Second compound 0.0949 µM, first compound 0.03 µM
  viability, T/C: 64.6%
Second compound 0.0949 µM, first compound 0.0949 µM
  viability, T/C: 14.6%
Second compound 0.0949 µM, first compound 0.3 µM
  viability, T/C: 1.56%
Second compound 0.3 µM, first compound 0.000949 µM
  viability, T/C: 20.1%
Second compound 0.3 µM, first compound 0.003 µM
  viability, T/C: 21.6%
Second compound 0.3 µM, first compound 0.00949 µM
  viability, T/C: 12.9%
Second compound 0.3 µM, first compound 0.03 µM
  viability, T/C: 8.55%
Second compound 0.3 µM, first compound 0.0949 µM
  viability, T/C: 1.72%
Second compound 0.3 µM, first compound 0.3 µM
  viability, T/C: 0.32%
Second compound 0.949 µM, first compound 0.000949 µM
  viability, T/C: 2.25%
Second compound 0.949 µM, first compound 0.003 µM
  viability, T/C: 1.92%
Second compound 0.949 µM, first compound 0.00949 µM
  viability, T/C: 1.01%
Second compound 0.949 µM, first compound 0.03 µM
  viability, T/C: 0.78%
Second compound 0.949 µM, first compound 0.0949 µM
  viability, T/C: 0.55%
Second compound 0.949 µM, first compound 0.3 µM
  viability, T/C: 1.54%
Second compound 3 µM, first compound 0.000949 µM
  viability, T/C: 0.73%
Second compound 3 µM, first compound 0.003 µM
  viability, T/C: 1.1%
Second compound 3 µM, first compound 0.00949 µM
  viability, T/C: 0.93%
Second compound 3 µM, first compound 0.03 µM
  viability, T/C: 1.16%
Second compound 3 µM, first compound 0.0949 µM
  viability, T/C: 1.19%
Second compound 3 µM, first compound 0.3 µM
  viability, T/C: 2%

## NC1CCC(NC2CC2c2ccccc2)CC1 (stereo unspecified) + CCN1C(C(=O)NC23CCC(C(=O)O)(CC2)CC3)C(c2cccc(Cl)c2F)C2(C(=O)Nc3cc(Cl)ccc32)C12CCCCC2
Second compound 0.00949 µM
  IC50: > 100 nM
Second compound 0.03 µM
  IC50: > 100 nM
Second compound 0.0949 µM
  IC50: > 100 nM
Second compound 0.3 µM
  IC50: < 0.316 nM
Second compound 0.949 µM
  IC50: < 0.316 nM
Second compound 3 µM
  IC50: < 0.316 nM
Second compound 0.00949 µM, first compound 0.000316 µM
  viability, T/C: 102%
Second compound 0.00949 µM, first compound 0.001 µM
  viability, T/C: 96.7%
[1]
  viability, T/C: 88%
[2]
  viability, T/C: 88%
[3]
  viability, T/C: 94.2%
[4]
  viability, T/C: 91.1%
Second compound 0.03 µM, first compound 0.000316 µM
  viability, T/C: 98%
Second compound 0.03 µM, first compound 0.001 µM
  viability, T/C: 96.8%
[5]
  viability, T/C: 88.9%
[6]
  viability, T/C: 84.6%
[7]
  viability, T/C: 85.9%
[8]
  viability, T/C: 89.5%
Second compound 0.0949 µM, first compound 0.000316 µM
  viability, T/C: 84.9%
Second compound 0.0949 µM, first compound 0.001 µM
  viability, T/C: 74.4%
[9]
  viability, T/C: 57.8%
[10]
  viability, T/C: 53.4%
[11]
  viability, T/C: 55.2%
[12]
  viability, T/C: 51.7%
Second compound 0.3 µM, first compound 0.000316 µM
  viability, T/C: 18.6%
Second compound 0.3 µM, first compound 0.001 µM
  viability, T/C: 18.2%
[13]
  viability, T/C: 6.03%
[14]
  viability, T/C: 8.44%
[15]
  viability, T/C: 13.7%
[16]
  viability, T/C: 11.2%
Second compound 0.949 µM, first compound 0.000316 µM
  viability, T/C: 1.71%
Second compound 0.949 µM, first compound 0.001 µM
  viability, T/C: 2.22%
[17]
  viability, T/C: 1.78%
[18]
  viability, T/C: 1.87%
[19]
  viability, T/C: 1.95%
[20]
  viability, T/C: 1.33%
Second compound 3 µM, first compound 0.000316 µM
  viability, T/C: 1.21%
Second compound 3 µM, first compound 0.001 µM
  viability, T/C: 1.53%
[21]
  viability, T/C: 2.09%
[22]
  viability, T/C: 1.25%
[23]
  viability, T/C: 1.49%
[24]
  viability, T/C: 1.44%
